The values that follow come from patent US11215608B2, “Methods of determining cellular chemosensitivity” (Dana-Farber Cancer Institute, Inc., priority 2006, dated 2022).

The target of assay [1] is BCL-XL (Homo sapiens, UniProt Q07817). The following applies: cited from earlier work.
The test system of assay [2] is BAX. The experiment in a line: BAX oligomerization / activation in mitochondria of IL-3 starved FL5.12-BCL-2 cells. In kind it is biochemical, murine. How it is done: Mitochondria were isolated from wt FL5.12 cells and FL5.12-BCL-2 cells in the presence of IL-3, and from FL5.12-BCL-2 cells following 24 hours of IL-3 deprivation. […] Mitochondrial pellets were subjected to chemical crosslinking as previously described (Letai et al., 2002).
This model predicts that BCL-2 acts upstream of BAX activation by intercepting activator BH3 molecules. To test this prediction, in FIG. 6E, immunoprecipitation was performed with an antibody that recognizes only the activated form of BAX which exposes an N-terminus epitope (Desagher ct al., 1999; Hsu and You le, 1997). wt or BCL-2 expressing FL5.12 cells were exposed to IL-3 withdrawal as indicated.

In assay [3] the test system is BAX. The experiment in a line: BAX oligomerization in CLL cells. In kind it is cell-based, human. The following applies: 4 hours. How it is done:
10^7 freshly isolated CLL cells were incubated with DMSO, 10 nM, 100 nM, or 1 μM ABT-737 or negative control enantiomer for 4 hours, % dead assessed by Annexin-V staining and FACS analysis, then treated with 0.3% saponin and 10 μM BMH for 30 minutes on ice. Cells were then lysed, loaded onto a 10% BISTris polyacrlyamide gel, transferred, and immunoblotted for BAX.

Assay [4] concerns CLL cells. Description: Annexin-V death assay of freshly isolated primary CLL cells. Format: cell-based, human. The settings on record: five samples.

BCL-XL, sequence (Q07817 whole entry, species assumed): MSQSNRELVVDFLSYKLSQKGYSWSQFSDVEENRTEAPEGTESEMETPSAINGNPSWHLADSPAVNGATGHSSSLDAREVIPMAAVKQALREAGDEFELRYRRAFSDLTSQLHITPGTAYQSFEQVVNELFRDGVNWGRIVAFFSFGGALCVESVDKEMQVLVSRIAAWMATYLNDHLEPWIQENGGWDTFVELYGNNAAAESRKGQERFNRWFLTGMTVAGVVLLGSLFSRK

`CN(C)CC[C@H](CSc1ccccc1)Nc1ccc(S(=O)(=O)NC(=O)c2ccc(N3CCN(Cc4ccccc4-c4ccc(Cl)cc4)CC3)cc2)cc1[N+](=O)[O-]` [ABT-737]: the “affinity to BCL-XL” value in assay [1] is recorded as “sub-nanomolar range”. Also, in assay [2] (mitochondria from IL-3 starved cells), the “cytochrome c release and BAX activation” value is “restored cytochrome c release and BAX activation”. Besides, the BAX oligomerization result in assay [2] (peptides 30 uM, ABT-737 10 uM, 35 minutes) was “results in BAX oligomerization”. For the same compound, the “oligomerization of BAX” value in assay [3] is given as “oligomerization of BAX within four hours”. The “response of CLL cells after four hours” value in assay [4] is “responded similarly compared to 48-hour treatment”.
